pKi: −log10 of the molar value. Where a name gives a salt, the structure may show the parent alone.

This is an account of results in US8003670B2, “Aminoalkoxy aryl sulfonamide compounds and their use as 5-HT6 ligands” (Suven Life Sciences Limited, priority 2007, dated 2011).

System in the first data set: not given
Assay: not given
Conditions: not given
Consider `COc1ccc(S(=O)(=O)n2ccc3cc(Br)ccc32)cc1OC1CCN(C)CC1` [Example 63, 5-Bromo-1-[4′-methoxy-3′-(1-methylpiperidin-4-yloxy)benzenesulfonyl]-1H-indole], for which the melting point is 127.2 to 128 °C. Still for that read-out and setting: for `Cl.O=S(=O)(c1ccc(Cl)c(OC2CCNCC2)c1)n1ccc2ccc(Cl)cc21` the value was 258.3 to 259.5 °C; for `CCc1ccc(S(=O)(=O)n2cc(Br)c3cc(F)ccc32)cc1OC1CCN(C)CC1` [Example 67, 3-Bromo-5-fluoro-1-[4′-ethyl-3′-(1-methylpiperidin-4-yloxy)benzenesulfonyl]-1H-indole], 133.2 to 134.5 °C; for `CCc1ccc(S(=O)(=O)n2cc(Br)c3cc(F)ccc32)cc1OC1CCNCC1.Cl`, 289.9 to 291.5 °C. For `COc1ccc2c(ccn2S(=O)(=O)c2ccc(OC)c(OC3CCNCC3)c2)c1.Cl` [Example 56, 5-Methoxy-1-[4′-methoxy-3′-(piperidin-4-yloxy)benzenesulfonyl]-1H-indole hydrochloride], the melting point is 231.2 to 232.7 °C.

Consider `CCc1ccc(S(=O)(=O)n2ccc3cc(F)ccc32)cc1OC1CCNCC1.Cl`, for which the melting point lay in the range of 201.46 to 204.21 °C.

As for `CC(C)c1ccc(S(=O)(=O)n2ccc3cc(F)ccc32)cc1OC1CCN(C)CC1` [Example 53, 5-Fluoro-1-[4′-isopropyl-3′-(1-methylpiperidin-4-yloxy)benzenesulfonyl]-1H-indole], the melting point lay in the range of 73.2 to 74.5 °C. The same measure, in the same setting: for `COc1ccc(S(=O)(=O)n2ccc3ccc(Cl)cc32)cc1OC1CCN(C)CC1` [Example 62, 6-Chloro-1-[4′-methoxy-3′-(1-methylpiperidin-4-yloxy)benzenesulfonyl]-1H-indole] the value was 112 to 115 °C; for `COc1ccc2c(c1)c(C)cn2S(=O)(=O)c1ccc(C(C)C)c(OC2CCN(C)CC2)c1` [Example 61, 5-Methoxy-3-methyl-1-[4′-isopropyl-3′-(1-methylpiperidin-4-yloxy)benzenesulfonyl]-1H-indole], 73.2 to 74.5 °C.

In the next data set the target is T1, 5-HT6 receptor (Homo sapiens, UniProt P50406).
T1 sequence (P50406 whole entry): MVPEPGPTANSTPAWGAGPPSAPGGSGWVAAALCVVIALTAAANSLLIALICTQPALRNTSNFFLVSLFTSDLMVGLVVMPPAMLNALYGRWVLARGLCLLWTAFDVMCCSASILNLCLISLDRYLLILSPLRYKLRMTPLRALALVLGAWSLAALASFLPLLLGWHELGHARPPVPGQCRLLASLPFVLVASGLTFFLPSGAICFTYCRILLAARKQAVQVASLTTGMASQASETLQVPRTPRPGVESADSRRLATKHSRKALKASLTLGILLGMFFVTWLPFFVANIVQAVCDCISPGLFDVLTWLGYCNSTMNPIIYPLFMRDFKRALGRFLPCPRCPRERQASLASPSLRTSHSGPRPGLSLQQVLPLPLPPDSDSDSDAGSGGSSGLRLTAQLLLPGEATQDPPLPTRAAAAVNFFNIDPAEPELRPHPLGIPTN
Assay: not given
To be noted: literature; cited from earlier work.
Regarding `CN(C)CCC=C1c2ccccc2CCc2ccccc21` [amitriptyline], the “Affinity for the 5-HT6 receptor (in words)” value is recorded as “high affinity”. For the molecule `CN1CCN2c3ccccc3Cc3ccccc3C2C1` (centres unmarked) [mianserin], the “Affinity for the 5-HT6 receptor (in words)” value is on record as “high affinity”.

In the next data set the target is T1, 5-HT6 receptor. The data set is described as follows: Binding assay for human 5-HT6 receptor ([3H]LSD radioligand). More on the design: expressed in transfected cells; host or cells: HEK293. The following applies: 100 nM test compound; human recombinant receptor in HEK293 cells; [3H]LSD 1.5 nM; read-out: Radioligand binding data at 5-HT6 R (h) % Inhibition of specific binding at 100 nM. As to the method:
Compounds can be tested according to the following the procedures.
Receptor source: Human recombinant expressed in HEK293 cells
Radioligand: [^3H]LSD (60-80 Ci/mmol)
Final ligand concentration—[1.5 nM]
Non-specific determinant: Methiothepin mesylate—[0.1 μM]
Reference compound: Methiothepin mesylate
Positive control: Methiothepin mesylate
Reactions were carried out in […] TRIS-HCl (pH 7.4) containing […] MgCl2, 0.5 mM EDTA for […] at 37° C. The reaction was terminated by rapid vacuum filtration onto glass fiber filters. Radioactivity trapped onto the filters was determined and compared to control values in order to ascertain any interactions of test compound(s) with the cloned serotonin 5-HT6 binding site.
Mol. Pharmacol. (43): 320-327 (1993).
Take `COc1ccc2c(ccn2S(=O)(=O)c2cccc(OC3CCN(C)CC3)c2)c1` [Example 9, 5-Methoxy-1-[3′-(1-methylpiperidin-4-yloxy)benzenesulfonyl]-1H-indole]: the inhibition at 0.1 µM came out at 58.2%. Same read-out and setting: under `CN1CCC(Oc2cccc(S(=O)(=O)n3ccc4cc(F)ccc43)c2)CC1` [Example 8, 5-Fluoro-1-[3′-(1-methylpiperidin-4-yloxy)benzenesulfonyl]-1H-indole] stands 61.7%; under `CCc1ccc(S(=O)(=O)n2ccc3cc(OC)ccc32)cc1OC1CCN(C)CC1` [Example 55, 5-Methoxy-1-[4-ethyl-3-(1-methylpiperidin-4-yloxy)benzenesulfonyl]-1H-indole], 89%. On the same count and under the same terms, under `COc1ccc(S(=O)(=O)n2ccc3cc(F)ccc32)cc1OC1CCN(C)CC1` [Example 58, 5-Fluoro-1-[4′-methoxy-3′-(1-methylpiperidin-4-yloxy)benzenesulfonyl]-1H-indole] stands 91.6%; under `COc1ccc2c(ccn2S(=O)(=O)c2ccc(OC)c(OC3CCNCC3)c2)c1.Cl` [Example 56, 5-Methoxy-1-[4′-methoxy-3′-(piperidin-4-yloxy)benzenesulfonyl]-1H-indole hydrochloride], 88.6%; under `CC(C)c1ccc(S(=O)(=O)n2ccc3cc(F)ccc32)cc1OC1CCN(C)CC1` [Example 53, 5-Fluoro-1-[4′-isopropyl-3′-(1-methylpiperidin-4-yloxy)benzenesulfonyl]-1H-indole], 66.9%. On the same count and under the same terms, under `CN1CCC(Oc2cc(S(=O)(=O)n3ccc4cc(F)ccc43)ccc2Cl)CC1` [Example 59, 5-Fluoro-1-[4′-chloro-3′-(1-methylpiperidin-4-yloxy)benzenesulfonyl]-1H-indole] stands 89.8%; under `COc1ccc2c(ccn2S(=O)(=O)c2ccc(C(C)C)c(OC3CCN(C)CC3)c2)c1` [Example 52, 5-Methoxy-1-[4′-isopropyl-3′-(1-methylpiperidin-4-yloxy)benzenesulfonyl]-1H-indole], 31.5%. Consider `Cc1ccc(S(=O)(=O)n2cc(C)c3ccccc32)cc1OC1CCN(C)CC1` [Example 54, 3-Methyl-1-[4′-methyl-3′-(1-methylpiperidin-4-yloxy)benzenesulfonyl]-1H-indole], for which the inhibition at 0.1 µM amounted to 99.7%. On the same count and under the same terms, for `Cc1ccc(S(=O)(=O)n2ccc3cc(F)ccc32)cc1OC1CCN(C)CC1` [Example 24, 5-Fluoro-1-(4′-methyl-3′-(1-methylpiperidin-4-yloxy)benzenesulfonyl)-1H-indole hydrochloride] the value was 89.4%.

Still in this data set, the particulars now being: human recombinant receptor in HEK293 cells; [3H]LSD 1.5 nM; 37° C.; read-out: Radioligand binding data at 5-HT6 R (h) Ki.
With `COc1ccc2c(ccn2S(=O)(=O)c2ccc(C)c(OCCN(C)C)c2)c1` [Example 13, 1-[4′-Methyl-3′-(N,N-dimethylaminoethoxy)benzenesulfonyl]-5-methoxy-1H-indole], the pKi is 7.95. The same measure, in the same setting: under `CCc1ccc(S(=O)(=O)n2ccc3cc(Br)ccc32)cc1OCCCN(C)C` [Example 32, 5-Bromo-1-[4′-Ethyl-3′-(N,N-dimethylaminopropoxy)benzenesulfonyl]-1H-indole] stands 8.12; under `CCOc1ccc2c(ccn2S(=O)(=O)c2ccc(C)c(OCCCN(C)C)c2)c1` [Example 20, 5-Ethoxy-1-[4′-methyl-3′-(N,N-dimethylaminopropoxy)benzenesulfonyl]-1H-indole], 7.91. As for `Cc1ccc(S(=O)(=O)n2ccc3ccccc32)cc1OCCN(C)C` [Example 10, 1-[4′-Methyl-3′-(N,N-dimethylaminoethoxy)benzenesulfonyl]-1H-indole], the pKi was 8.56. Still for that read-out and setting: under `CC(C)c1ccc(S(=O)(=O)n2ccc3ccccc32)cc1OCCN(C)C` [Example 36, 1-[4′-Isopropyl-3′-(N,N-dimethylaminoethoxy)benzenesulfonyl]-1H-indole] stands 7.86; under `COc1ccc2c(ccn2S(=O)(=O)c2ccc(C)c(OCCCN(C)C)c2)c1` [Example 19, 1-[4′-Methyl-3′-(N,N-dimethylaminopropoxy)benzenesulfonyl]-5-methoxy-1H-indole], 7.51.

`CCc1ccc(S(=O)(=O)n2ccc3cc(F)ccc32)cc1OCCCN(C)C` [Example 35, 1-[4′-Ethyl-3′-(N,N-dimethylaminopropoxy)benzenesulfonyl]-5-fluoro-1H-indole]: the pKi is 7.73. As for `CCc1ccc(S(=O)(=O)n2ccc3ccccc32)cc1OCCCN(C)C` [Example 31, 1-[4′-Ethyl-3′-(N,N-dimethylaminopropoxy)benzenesulfonyl]-1H-indole], the pKi is 7.45. On to `Cc1ccc(S(=O)(=O)n2ccc3cc(F)ccc32)cc1OCCCN(C)C` [Example 17, 5-Fluoro-1-[4′-Methyl-3′-(N,N-dimethylaminopropoxy)benzenesulfonyl]-1H-indole], for which the pKi is 7.90. On the same count and under the same terms, for `Cc1ccc(S(=O)(=O)n2ccc3cc(Br)ccc32)cc1OCCCN(C)C` [Example 18, 5-Bromo-1-[4′-Methyl-3′-(N,N-dimethylaminopropoxy)benzenesulfonyl]-1H-indole] the value was 7.93; for `COc1ccc2c(ccn2S(=O)(=O)c2ccc(C(C)C)c(OCCCN(C)C)c2)c1` [Example 43, 1-[4′-Isopropyl-3′-(N,N-dimethylaminopropoxy)benzenesulfonyl]-5-Methoxy-1H-indole], 7.20; for `Cc1ccc(S(=O)(=O)n2ccc3c(Cl)cccc32)cc1OCCCN(C)C` [Example 79, 4-Chloro-1-[4′-Methyl-3′-(N,N-dimethylaminopropoxy)benzenesulfonyl]-1H-indole], 7.87. Still for that read-out and setting: under `Cc1ccc(S(=O)(=O)n2ccc3cc(Br)ccc32)cc1OCCN(C)C` [Example 12, 5-Bromo-1-[4′-methyl-3′-(N,N-dimethylaminoethoxy)benzenesulfonyl]-1H-indole] stands 7.55; under `Cc1ccc(S(=O)(=O)n2ccc3ccc(Cl)cc32)cc1OCCCN(C)C` [Example 21, 6-Chloro-1-[4′-methyl-3′-(N,N-dimethylaminopropoxy)benzenesulfonyl]-1H-indole], 7.88.

As for `Cc1ccc(S(=O)(=O)n2ccc3ccccc32)cc1OCCCN(C)C` [Example 16, 1-[4′-Methyl-3′-(N,N-dimethylaminopropoxy)benzenesulfonyl]-1H-indole], the pKi was 8.73. Same read-out and setting: for `Cc1ccc(S(=O)(=O)n2ccc3ccc(Cl)cc32)cc1OCCN(C)C` [Example 15, 6-Chloro-1-[4′-methyl-3′-(N,N-dimethylaminoethoxy)benzenesulfonyl]-1H-indole] the value was 8.80; for `CCc1ccc(S(=O)(=O)n2ccc3ccccc32)cc1OCCN(C)C` [Example 26, 1-[4′-Ethyl-3′-(N,N-dimethylaminoethoxy)benzenesulfonyl]-1H-indole], 8.72; for `Cc1ccc(S(=O)(=O)n2ccc3cc(F)ccc32)cc1OCCN(C)C` [Example 11, 5-Fluoro-1-[4′-methyl-3′-(N,N-dimethylaminoethoxy)benzenesulfonyl]-1H-indole], 8.23.

Turning to `CCc1ccc(S(=O)(=O)n2ccc3ccc(Cl)cc32)cc1OCCCN(C)C` [Example 33, 1-[4′-Ethyl-3′-(N,N-dimethylaminopropoxy)benzenesulfonyl]-6-chloro-1H-indole], the pKi is 8.24.

As for `CCc1ccc(S(=O)(=O)n2ccc3cc(F)ccc32)cc1OCCN(C)C` [Example 30, 1-[4′-Ethyl-3′-(N,N-dimethylaminoethoxy)benzenesulfonyl]-5-fluoro-1H-indole], the pKi was 8.26.

In general, melting point refers to the temperature of the solid-liquid transition. By inhibition is commonly meant how much of the control response was suppressed. In general, pKi refers to −log10 of the Ki, conventionally taken in molar units.
